How the values were obtained:
Stat signaling = assay: Miniature drug screen and inhibitor titration in U937 cells: Stat signaling overall (pStat1, pStat3, pStat5); format: cell-based, human; details: for order of selectivity for the cytokine pathways: titration (Jak inhibitor I 0.005-5 μM, WHI-P154 0.1-100 μM), 30 min before stimulation
Procedure: (§1) FIG. 4. FCB of 36 samples increases throughput of phospho flow. (a) Efficient barcoding of 36 samples. U937 cells were left untreated or were stimulated with IFN-γ (10 ng/ml) for 10 min. Unstimulated and stimulated samples were added to a 96-well plate in an alternating pattern across each row and down each column and labeled with six concentrations of Pacific Blue-NHS (0, 0.15, 0.6, 2.5, 10 or 40 μg/ml) and/or Alexa 488-NHS (0, 0.07, 0.3, 1.3, 5 or 20 μg/ml). […] Reverse deconvolution (bottom panel) of all stimulated or unstimulated cells produced the expected checkerboard pattern. (b) Miniature drug screen and titration of inhibitors with FCB. U937 cells were treated with various drugs before stimulation with IFN-γ, IL-6 and GM-CSF (stimulation). WHI-P154 (WHI; 50 μM), PD98059 (PD; 20 μM), Jak inhibitor I (Jak-1; 5 μM), and wortmannin (Wort; 2 μM) were added to the cells 30 min before stimulation; samples were barcoded with Pacific Blue-NHS and simultaneously stained with pStat1 Alexa 488, pStat3 PE and pStat5 Alexa 647 (left three plots). Jak inhibitor I was added at 0.005, 0.05, 0.5 or 5 μM for 30 min before stimulation (middle). WHI-P154 was added at 0.1, 1, 10 or 100 μM for 30 min before stimulation (right). Non-drug-treated positive and negative controls are included within each FCB staining set, allowing for internal normalization of each staining cocktail.
We next applied the FCB platform to a drug screening profile, as a real-world example of how the technique could be used to enhance analysis throughput and reproducibility (FIG. 4b). Using Pacific Blue as the FCB reagent, we pretreated U937 cells with four small-molecule inhibitors: wortmannin (a PI-3 kinase inhibitor), Jak inhibitor I (an inhibitor of all Jak kinases), PD98059 (an MEK inhibitor) and WHI-P154 (a Jak3 inhibitor). We then stimulated the cells simultaneously with IFN-γ, IL-6 and granulocyte-monocyte colony-stimulating factor (GM-CSF) to induce pStat1, pStat3 and pStat5, respectively. […]

[1] = test system: Stat1 and ERK phosphorylation; assay: 96-well FCB drug screen in Jurkat cells: class of drug activity, pERK versus pStat1; format: cell-based, human; details: 20 μM, 45 min before stimulation with anti-CD3, anti-CD28 and IFN-γ for 5 min
Procedure: (a) Layout of screening experiment. Jurkat cells were treated with 70 known small-molecule kinase or phosphatase inhibitors (20 μM), Jak inhibitor I (2 μM) or U0126 (20 μM) for 45 min before stimulation with 5 μg/ml anti-CD3 and anti-CD28 and 10 ng/ml IFN-γ for 5 min. […] After fixation, cells were barcoded with Alexa 700-NHS (0, 0.06, 0.25 or 1 μg/ml) to delineate the four quadrants of the 96-well plate. Each quadrant was subdivided into four rows labeled with Pacific Blue-NHS (0, 0.04, 0.2 or 1 μg/ml) and six columns labeled with Alexa 488-NHS (0, 0.02, 0.06, 0.18, 0.5 or 1.5 μg/ml). […] (c) Heat map representation of percent inhibition of ERK and Stat1 phosphorylation. […] Wells with black triangles were excluded from the analysis due to high fluorescence of the drug in the phospho-protein fluorescence channels. […] (d) Two-dimensional plots of pERK versus pStat1.
For this purpose, we designed an FCB labeling scheme using three dyes to barcode 96 samples (FIG. 5). With this FCB setup, we screened a small-molecule library of 70 previously characterized kinase and phosphatase inhibitors for their ability to inhibit T-cell receptor-mediated ERK phosphorylation and/or Stat1 phosphorylation induced by IFN-γ (FIG. 5a). After addition of inhibitors, stimulation, fixation and barcoding, we combined all 96 samples into one sample and stained it with phycoerythrin-labeled antibodies against phosphorylated ERK (pERK PE) and pStat1 Alexa 647 antibodies (for a total of five fluorophores: three FCB reagents and two antibodies).
We cultured U937 cells, a monocytic lymphoma cell line, and Jurkat T cells in RPMI-1640 containing 10% fetal bovine serum, 100 U/ml penicillin, 100 μg/ml streptomycin, 1 mM L-glutamine (RPMI-10), and stimulated cells at a density of 10^6 cells/ml. […] We stimulated cells in 96-well deep block plates (2-ml capacity) by adding the appropriate cytokine or stimulus directly to the culture medium without prior starvation. After a 10-15-min incubation, we fixed cells with 1.6% formaldehyde for 10 min and then proceeded with the FCB phospho flow protocol below. Where inhibitors were used, we added these compounds 30 min before stimulation.
We performed phospho flow as previously described (ref. 4) with slight modifications to include FCB labeling. After formaldehyde fixation, we resuspended samples in 100% 20-25° C. methanol (typically 500 μl per 10^6 cells) containing the indicated concentration of Alexa Fluor or Pacific Blue succinimidyl esters, with each sample receiving a different concentration of fluorescent dye.

[2] = test system: Stat1 and ERK phosphorylation; assay: Titration of four screening hits in Jurkat cells using six-sample FCB (pStat1, pERK); format: cell-based, human; details: 30 min before IFN-γ (10 ng/ml) and anti-CD3/28 (5 μg/ml each)
Procedure: FIG. 8. Detailed titration of four hits from Jurkat drug screening experiment (FIG. 5). a) Four compounds: Bay11-7082, Indirubin-3-monoxime, PP2, and ZM449829 were added to Jurkat cells at different concentrations for 30 min prior to stimulation with IFN-γ (10 ng/ml) and anti-CD3/28 (5 μg/ml each). The cells were fixed and permeabilized, then stained with pStat1 Ax647 and pERK Ax488 antibodies. Percent inhibition of phosphorylation was plotted against concentration of drugs and fitted with a logistic regression curve to obtain IC50 values. Numbers in the top right of each plot are the IC50 value in μM units. b) Lysates were prepared from the same cells used for phospho flow and analyzed by western blot with pStat1 and pERK antibodies. Drugs were applied at 20 μM (same concentration as initial screen) for western blot analysis.
Because a few of these hits were unexpected, we performed titration experiments using six-sample FCB on four of the compounds to validate the results (FIG. 8).
We calculated fold change of phosphorylation upon stimulation by dividing median fluorescence intensity (MFI) of stimulated samples by the MFI of unstimulated samples: FC=MFIstim/MFIunstim. For heat map analysis, FC was converted to log2 values to enhance visualization and so that samples showing no change have a value of zero. To measure drug activity, we calculated percent inhibition as follows: Percent Inhibition=1−((MFItreated ? MFIunstim)/(MFIstim ? MFIunstim)), where “treated” denotes drug treated (and stimulated) samples, “stim” denotes control stimulated (non drug treated) samples, and “unstim” denotes control unstimulated (non drug treated) samples. We calculated Z′-factor from control stimulated and unstimulated samples by the following: Z′-factor=1 ? ((3[…]SDstim 3[…]SDunstim)/(meanstim ? meanunstim)), where “SD” denotes standard deviation of the mean, and “mean” denotes the mean of either stimulated or unstimulated MFI values. Z′-factor is an indication of the robustness and suitability of an assay for high throughput screening, with values from 0.5 to 1 indicating an excellent assay, 0 to 0.5 indicating a usable assay, and less than 0 indicating the assay has too much noise or inadequate dynamic range.

Stat1 phosphorylation = assay: Miniature drug screen by FCB phospho flow in U937 cells: IFN-γ-induced pStat1; format: cell-based, human; details: added 30 min before stimulation with IFN-γ, IL-6 and GM-CSF
Procedure: as §1, with “cocktail. […]” for “cocktail.”

Stat3 phosphorylation = assay: Miniature drug screen by FCB phospho flow in U937 cells: IL-6-induced pStat3; format: cell-based, human; details: added 30 min before stimulation with IFN-γ, IL-6 and GM-CSF
Procedure: as §1, with “cocktail. […]” for “cocktail.”

Stat5 phosphorylation = assay: Miniature drug screen by FCB phospho flow in U937 cells: GM-CSF-induced pStat5; format: cell-based, human; details: added 30 min before stimulation with IFN-γ, IL-6 and GM-CSF
Procedure: as §1, with “cocktail. […]” for “cocktail.”

[3] = test system: pStat1 in CD4+ and CD4− T cells; assay: IFN-γ time course and dose titration in primary mouse splenocytes: pStat1 in T cells; format: cell-based
Procedure: (§2) FIG. 6. Use of FCB to label primary cell populations. […] (a) Mouse splenocytes were stimulated with different concentrations of IFN-γ across each row (0, 0.17, 0.5, 1.5, 4.5, 13, 40, 120, 370, 1,100, 3,300 or 10,000 pg/ml) for 0, 4, 8, 15, 30, 60, 120 or 180 min (each row representing a different time point). Cells were barcoded with three FCB markers (Alexa 700, Alexa 488 and Pacific Blue as in FIG. 5) during permeabilization, and stained with CD11b Cy5.5PerCP, B220 QD605, TCR PE, CD4 Cy7PE and pStat1 Alexa 647. Cell types were first gated based on surface markers to obtain CD11b-hi cells (neutrophils), B cells, CD4+ T cells and CD4-T cells. Each cell type was then deconvoluted to obtain the original 96-well plate layout. (b) Heat map representation showing the fold change in pStat1 levels on a log 2 scale across dose (from left to right) and time gradients (top to bottom). Yellow represents maximal induction, red indicates half-maximal induction, and black indicates no induction. Note that the scale for each cell type is different owing to different maximal induction of Stat1 phosphorylation.
(§3) Primary cells, and diseased cells from patients, are a limited resource and are not amenable to the majority of high-throughput screening systems. Therefore, we tested whether FCB could be applied to large-scale signaling profiling of heterogeneous populations of normal and/or diseased cells (refs. 13, 14). To this end, we stimulated primary mouse splenocytes with IFN-γ in a 96-well plate format, and asked whether different cell types show different kinetics and thresholds of responsiveness to IFN-γ. We performed a time course of stimulation across 11 different concentrations of the cytokine. Here, to discriminate cell types in addition to measuring phosphorylation levels, we stained the cells with pStat1 Alexa 647 and four surface marker antibodies: B220, TCR, CD4 and CD11b (for a total of eight colors: three FCB markers, four surface antibodies and one phospho antibody). We first gated cell types based on surface marker expression to obtain B cells, CD4+ T cells, CD4− T cells and CD11b-hi cells (neutrophils) 25 (FIG. 6a). We then deconvoluted each cell type to obtain the original plate layout.
We cultured U937 cells, a monocytic lymphoma cell line, and Jurkat T cells in RPMI-1640 containing 10% fetal bovine serum, 100 U/ml penicillin, 100 μg/ml streptomycin, 1 mM L-glutamine (RPMI-10), and stimulated cells at a density of 10^6 cells/ml. We obtained splenocytes from BALB/c mice by homogenization and resuspended them in RPMI-10 at 5 106 cells/ml. Splenocytes were rested for 2-3 h at 37° C. before stimulation13. We stimulated cells in 96-well deep block plates (2-ml capacity) by adding the appropriate cytokine or stimulus directly to the culture medium without prior starvation. […]

pStat1 in B cells = assay: IFN-γ time course and dose titration in primary mouse splenocytes: pStat1 in B cells; format: cell-based
Procedure: as §2
as §3, with “We first gated cell types based on surface marker expression to obtain B cells, CD4+ T cells, CD4− T cells and CD11b-hi cells (neutrophils) 25 (FIG. 6a). We then deconvoluted each cell type to obtain the original plate layout.” left out

[4] = test system: pStat1 in CD11b-hi cells (neutrophils); assay: IFN-γ time course and dose titration in primary mouse splenocytes: pStat1 in neutrophils; format: cell-based
Procedure: as §2
as §3, with “We first gated cell types based on surface marker expression to obtain B cells, CD4+ T cells, CD4− T cells and CD11b-hi cells (neutrophils) 25 (FIG. 6a). We then deconvoluted each cell type to obtain the original plate layout.” left out

COc1cccc(-c2cc(=O)c3ccccc3o2)c1N [PD98059]
effects on Stat signaling (Stat signaling; 20 μM, added 30 min before stimulation with IFN-γ, IL-6 and GM-CSF): no or minor effects

CC(C)(C)n1nc(-c2ccc(Cl)cc2)c2c(N)ncnc21 [PP2]
class of drug activity (selectivity, Stat1 versus ERK phosphorylation) [1]: selectively inhibited ERK phosphorylation
selectivity for ERK (over Stat1) phosphorylation [2]: extremely selective

N#CC(=C(/N)Sc1ccccc1N)/C(C#N)=C(\N)Sc1ccccc1N [U0126]
class of drug activity (selectivity, Stat1 versus ERK phosphorylation) [1]: selectively inhibited ERK phosphorylation

COc1cc2ncnc(Nc3ccc(O)c(Br)c3)c2cc1OC [WHI-P154]
inhibition of Stat1 phosphorylation (Stat1 phosphorylation; 50 μM): 80%
inhibition of Stat3 phosphorylation (Stat3 phosphorylation; 50 μM): 100%
inhibition of Stat5 phosphorylation (Stat5 phosphorylation; 50 μM): 40%
order of selectivity for the cytokine pathways (Stat signaling): IL-6-Stat3>IFN-γ-Stat1>GM-CSF-Stat5

C=CC(=O)c1ccc2ccccc2c1 [ZM-449829]
class of drug activity (selectivity, Stat1 versus ERK phosphorylation) [1]: inhibited both Stat1 and ERK phosphorylation potently
selectivity between ERK and Stat1 phosphorylation [2]: little selectivity

O=C1Nc2ccccc2/C1=C1/Nc2ccccc2/C1=N\O [indirubin-3′-monooxime]
class of drug activity (selectivity, Stat1 versus ERK phosphorylation) [1]: selectivity for inhibiting Stat1 phosphorylation
selectivity for Stat1 (over ERK) phosphorylation [2]: extremely selective

CCCCCCCCCCCCC/C=C/[C@@H](O)[C@@H](N)CO [sphingosine]
class of drug activity (selectivity, Stat1 versus ERK phosphorylation) [1]: selectively inhibited ERK phosphorylation

IFN-γ: mouse IFN-γ from BD Pharmingen, cytokine used to stimulate primary mouse splenocytes
half-maximal response concentration (EC50), pStat1 induction ([3]; CD4+ T cells of mouse splenocytes): 50 pg/ml
maximum induction of pStat1 ([3]; CD4+/CD4− T cells of mouse splenocytes): 19-23 fold
half-maximal response concentration (EC50), pStat1 induction ([3]; CD4− T cells of mouse splenocytes): 50 pg/ml
time of maximal pStat1 induction ([3]; T cells of mouse splenocytes): 30 min
maximum induction of pStat1 (pStat1 in B cells): 19-23 fold
time of maximal pStat1 induction (pStat1 in B cells): 8-30 min
EC50, pStat1 induction (pStat1 in B cells; B cells of mouse splenocytes): 220 pg/ml
maximum induction of pStat1 [4]: 4.5 fold
time of maximal pStat1 induction [4]: 30-60 min
EC50, pStat1 induction ([4]; neutrophils (CD11b-hi cells) of mouse splenocytes): 400 pg/ml

Jak inhibitor I
inhibition of Stat1 phosphorylation (Stat1 phosphorylation; 5 μM): completely abrogating
inhibition of Stat3 phosphorylation (Stat3 phosphorylation; 5 μM): completely abrogating
inhibition of Stat5 phosphorylation (Stat5 phosphorylation; 5 μM): completely abrogating
order of selectivity for the cytokine pathways (Stat signaling): IL-6-Stat3>IFN-γ-Stat1>GM-CSF-Stat5

— US8003312B2, “Multiplex cellular assays using detectable cell barcodes” (The Board of Trustees of the Leland Stanford Junior …, priority 2007, dated 2011)
